Key:
anticoagulant activity = assay: Biological (anticoagulant) activity of heparin and PVP-heparins; type: biochemical; details: Table I; heparin 100
[1] = in vivo; cited from earlier work

- Solubility in Water: 70 g/100 ml
Substance: Heparin
- % Biological Activity (anticoagulant activity): 100%
- dose dependence of half-life in man [1]: does not increase
- half-life of heparin in man [1]: 1 - 11/2

Source: patent publication US4239664A, “Anti-thrombogenic PVP-heparin polymer” (Research Corporation, priority 1978, dated 1980)
